Source: patent US20200297798A1, “KEY AMINO ACID SITES […] EXPORT OF NUC[…] INFLUENZA A AND B VIRUSES AND USE THEREOF AS ANTI-INFLUENZA VIRUS DRUG TARGETS” (INSTITUTE OF MICROBIOLOGY, CHINESE ACADEMY OF SCIENCES, priority 2017, published 2020)

Key:
BNP F209A = BNP F209A (Influenza B virus, UniProt P04665, F209A)
ANP Y148F = ANP Y148F (Influenza A virus, UniProt P15682, Y148F)

Q: For `COc1ccc2cc(C(C)C(=O)O)ccc2c1` (stereo not drawn) [naproxen, (+) α-methyl-6-methoxy-2-naphthaleneacetic acid], which “n (stoichiometry)” value (BNP F209A) is on record?
A: 1.68

Q: And the ΔH (BNP F209A)?
A: -0.167 kcal/mol

Q: What about the ΔS (BNP F209A) of the same molecule?
A: 102.6 J/mol · K

Q: What about the “n (stoichiometry)” value (ANP Y148F) of the same molecule?
A: 0.10

Q: And the ΔH (ANP Y148F)?
A: -10.92 kcal/mol

Q: And the ΔS (ANP Y148F)?
A: −83.45 J/mol · K
